Experiments:
G6PD [1] = target: T1, G6PD (Homo sapiens, UniProt P11413); assay: 6-pg levels in HepG2 cells (cellular target engagement); format: cell-based; set-up: endogenous in cells; conditions: HepG2 cells; read-out: IC50, decrease in 6-pg levels
Excerpt: Direct Monitoring of 6-pg in cells. The metabolite 6-phosphogluconate (6-pg) is a downstream product of the G6PD reaction, and is believed to be made predominantly by the oxidative pentose phosphate pathway in mammalian cells. Though the direct product of G6PD is the lactone form of 6-pg (6-phosphogluconolactone), this product is believed to readily hydrolyze to 6-pg under cellular conditions, and is therefore difficult to detect. Thus, to directly monitor the G6PD reaction, methods for measuring 6-pg levels in intact cells were developed.
To explore this possibility further, more specific assays for evaluating G6PD cellular target engagement were developed. […] These included the hepatocellular carcinoma line, HepG2, which was selected as the primary cell for direct 6-pg monitoring. Consistent with the oxPPP being the primary source of 6-pg in these cells, G6PD knockout led to nearly complete 6-pg loss (FIGS. 1B and 1C).
For analysis of intracellular metabolites by LC-MS, adherent cell lines were plated and grown to 80% confluency in 6-well plates. At the start of an experiment, the appropriate media was added to cells, which included isotope tracers and/or chemical inhibitors as described. Cells were incubated at 37° C. at 5% CO2 for 2 hours (unless otherwise noted). For all experiments involving small molecule agents, DMSO concentrations were <0.2%. After 2 hours, media was removed by aspiration and metabolome extraction was performed (without any wash steps) by the addition of 800 µL of ice cold solvent (40:40:20 acetonitrile:methanol:water + 0.5% formic acid). After a 1-minute incubation on ice, the extract was neutralized by the addition of NH4HCO3 (15% w/v). The samples were incubated at -20° C. for approximately 30 minutes, at which point the wells were scraped and the extract transferred to Eppendorf tubes and centrifuged (15 minutes, 16000 rpm, 4° C.). The resulting supernatant was frozen on dry ice and kept at -80° C. until LC-MS analysis.
Metabolites were analyzed using a quadrupole-orbitrap mass spectrometer (Q Exactive Plus, Thermo Fisher Scientific, Waltham, MA), coupled to hydrophilic interaction chromatography (HILIC) with LC separation on a XBridge BEH Amide column (Waters), or a stand-alone orbitrap (Thermo-Fisher Exactive) coupled to reversed-phase ion-pairing chromatography with LC separation on a HSS-T3 column (Waters). Both mass spectrometers were operating in negative ion mode and were coupled to their respective liquid chromatography methods via electrospray-ionization. Detailed analytical conditions have been previously described.
Target sequence in this assay (P11413 whole entry): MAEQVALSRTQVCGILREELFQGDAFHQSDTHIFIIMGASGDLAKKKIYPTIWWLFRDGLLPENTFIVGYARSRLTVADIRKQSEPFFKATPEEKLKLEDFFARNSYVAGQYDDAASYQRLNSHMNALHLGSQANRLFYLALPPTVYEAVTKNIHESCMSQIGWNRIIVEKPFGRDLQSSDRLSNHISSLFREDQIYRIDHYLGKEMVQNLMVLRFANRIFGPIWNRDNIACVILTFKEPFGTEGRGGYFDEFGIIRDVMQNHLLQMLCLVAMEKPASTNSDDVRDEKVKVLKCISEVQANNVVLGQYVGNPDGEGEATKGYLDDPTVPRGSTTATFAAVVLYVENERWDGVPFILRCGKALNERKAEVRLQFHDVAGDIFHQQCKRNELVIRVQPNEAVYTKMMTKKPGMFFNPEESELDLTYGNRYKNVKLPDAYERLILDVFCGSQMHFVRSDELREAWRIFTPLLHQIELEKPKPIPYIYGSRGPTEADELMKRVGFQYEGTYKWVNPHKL

G6PD [2] = target: T1, G6PD; assay: G6PD enzymatic activity by diaphorase-coupled assay
Target sequence in this assay (P11413 28-515): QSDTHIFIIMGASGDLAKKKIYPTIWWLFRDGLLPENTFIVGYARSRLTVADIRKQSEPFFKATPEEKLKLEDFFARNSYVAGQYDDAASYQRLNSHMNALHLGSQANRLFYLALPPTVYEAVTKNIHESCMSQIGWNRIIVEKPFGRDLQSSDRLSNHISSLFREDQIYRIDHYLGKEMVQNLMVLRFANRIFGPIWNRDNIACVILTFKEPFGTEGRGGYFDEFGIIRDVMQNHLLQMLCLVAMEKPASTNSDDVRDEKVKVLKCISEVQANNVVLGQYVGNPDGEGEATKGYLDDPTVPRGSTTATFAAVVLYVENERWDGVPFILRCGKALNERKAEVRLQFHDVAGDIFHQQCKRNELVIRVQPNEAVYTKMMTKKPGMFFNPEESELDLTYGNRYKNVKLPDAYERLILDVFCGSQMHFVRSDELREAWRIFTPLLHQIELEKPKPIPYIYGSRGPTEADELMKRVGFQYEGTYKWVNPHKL

RBCs = assay: NADPH pools in red blood cells; format: cell-based, mouse
Experimental: To isolate red blood cells, mice were euthanized by cervical dislocation followed by collection of approximately 200 µL whole blood via cardiac puncture into tubes containing 7.5 µL heparin (1000USP/mL, H3393, Sigma Aldrich). The cells were incubated on ice for approximately 5 minutes, then centrifuged (5 minutes, 500 rpm, 4° C.) followed by aspiration of the serum and buffy coat layer. Cells were gently resuspended in PBS and then pelleted (5 minutes, 500 rpm, 4° C.) three times. Cells were then resuspended in RPMI media and used immediately for experiments.
For suspension cells (including T cells and red blood cells), 2×10^6 cells were seeded in 1 mL of media in 12-well plates and incubated with appropriate media, which included isotope tracers and/or chemical inhibitors and/or cytokines, as described. For all experiments involving small molecule agents, DMSO concentrations were <0.2%. After 2 hours, cell suspensions were transferred to 1.5 mL tubes and pelleted (30 seconds, 6000 rpm, room temperature). Media was removed by aspiration and metabolome extraction was performed by the addition of 75 µL of ice cold solvent (40:40:20 ACN:MeOH:H2O + 0.5%FA). After a 5-minute incubation on ice, acid was neutralized by the addition of NH4HCO3. […]

mouse neutrophils = assay: Neutrophil oxidative burst assay (mouse); format: cell-based; conditions: PMA, 50 µM
Experimental: Murine neutrophils were isolated from 8-12-week old C56BL/6 mice. Mice were bred and maintained according to the University of Wisconsin Institutional Animal Care and Use Committee (Protocol No. M006219). Mice were euthanized by cervical dislocation, and bone marrow cells were harvested from femur and tibia within 30 minutes. Cell suspensions were passed through a 70-µm cell strainer. Neutrophils were prepared using a negative selection kit (EasySep Mouse Neutrophil Enrichment Kit, Stem Cell Technologies), following the manufacturer’s instructions. Cells were cultured in RPMI 1640 media supplemented with 10% heat-inactivated FBS, 100 U/ml penicillin, 100 µg/ml streptomycin, 5 mM HEPES, and 2 mM EDTA. To stimulate neutrophils, 100 nM phorbol 12-myristate 13-acetate (PMA) (Cayman Chemical) was added to the media; metabolites were extracted after 30 minutes of stimulation.
Suspended neutrophils were plated in culture wells pre-coated with CELL-TAK™ (Corning), spun at 200 × g for 1 minute with minimal acceleration/deceleration, and then incubated for 1 hour at 37° C. Murine neutrophils were plated at 2×10^5 cells/well in RPMI 1640 media without sodium bicarbonate. […] Oxidative burst was stimulated with PMA (100 nM, Cayman Chemical); oxygen consumption rate was measured using the XF-96e extracellular flux analyzer (Seahorse Bioscience).

G6PD [3] = target: T1, G6PD; assay: Cellular thermal shift assay (CETSA) in HepG2 lysates; format: binding; set-up: endogenous in cells; conditions: up to 56° C.
Experimental: Lysates from HepG2 cells at 75% confluence were isolated with 0.5% Triton in TBS (20 mM, Tris pH 7.4, 150 mM NaCl) for 30 min on ice, pre-cleared by centrifugation and used for thermal shift assay as described 49. Briefly, inhibitor or DMSO control was added to lysates at indicated concentration and incubated for 30 min on ice followed by 3 min heating at 47° C., 50° C., 53° C., and 56° C. in a thermal cycler. After heating, tubes were cooled at room temperature for 3 min and insoluble fraction removed by centrifugation at 17,000 g for 20 min. The soluble fraction was separated by SDS-PAGE, transferred to PVDF membrane, and immunoblotted using indicated antibodies at a dilution of 1:2000. Blots were developed by chemiluminescence and imaged using LI-COR C-DiGit Western Blot Scanner. Two independent experiments were performed. Signal intensity of proteins from immunoblots was quantified using Image Studio version 5.2 for C-DiGit Scanner, and bands were normalized to signal intensity of the 47° C. treated samples. Relative signal intensities were plotted as bar graph relative to the DMSO treated control.
Target sequence in this assay (P11413 whole entry): as the sequence (P11413 whole entry) above

SMILES: N#Cc1cc(Nc2ncc3c(n2)CCCCC3=O)cs1 [Compound 2, 4-([5-oxo-6H,7H,8H,9H-cyclohepta[d]pyrimidin-2-yl]amino)thiophene-2-carbonitrile]
- IC50 (G6PD [1]): ~13 µM
- mode of binding to G6PD (G6PD [2]; competition assays against both substrates, in vitro dilution experiments): non-competitively and reversibly
- IC50 (G6PD [2]; read-out: IC50 (half-maximal inhibitory constant) against human G6PD, coupled enzymatic assay, recombinant human enzyme): 0.07 µM
- sensitivity of NADPH pools (RBCs): fairly sensitive
- oxidative burst (oxygen consumption rate) (mouse neutrophils): decreased oxidative burst
- thermal stabilization of G6PD (G6PD [3]): significant thermal stabilization of G6PD

Reference: patent US20230348401A1, “Inhibitors of Glucose-6-phosphate Dehydrogenase and Uses Thereof” (The Trustees of Princeton University, priority 2020, published 2023)
